The results in this text go back to patent US8324345B2, “HLA-binding peptide, precursor thereof, DNA fragment and recombinant vector encoding the same” (priority 2006, dated 2012).

Experiment [1] has as its target HLA-A2 molecule (the product of HLA-A*0201 gene) (Homo sapiens, UniProt P04439, D140Y/D185E/D98H/E176V/E277Q/G131W/G231S/I119V/I121R/I166T/I218V/L300P/L318F/N151K/N90K/P208A/P217A/Q86G/Q94H/R138H/R169H/T345S). Description: Binding experiment of the peptides to an HLA-A0201 molecule (JY cells, flow cytometry). As to the method: After neutralization, a reassemble experiment was performed.
The above JY cells and purified β 2 m were added to a serial dilution of the peptide whose binding affinity was to be measured. Then, the mixture was incubated on ice for 4 hours.
(Flow cytometry measures light scatter and fluorescence of single cells or particles in a stream.)

Experiment [2] deals with HLA-A2 molecule (the product of HLA-A*0206 gene) (Homo sapiens, UniProt P04439, D140Y/D185E/D98H/E176V/E277Q/F33Y/G131W/G231S/I119V/I121R/I166T/I218V/L300P/L318F/N151K/N90K/P208A/P217A/Q86G/Q94H/R138H/R169H/T345S). As to the kind of experiment: cell-based.
Description: The peptides' binding affinity to an HLA-A2 molecule (the product of HLA-A*0206 gene) was measured by using RA2.6 cells (a newly prepared cell line at Kochi University) that express the HLA-A*0206 gene, which were created by expressing cDNA of the HLA-A*0206 gene in RAMS cells, the mouse TAP peptide transporter deficient cells.
First, the RA2.6 cells were cultured overnight at 26° C. to accumulate HLA-A0206 molecules that were unbound to peptides on the cell surface. A peptide serial dilution was added thereto for binding at room temperature for 30 minutes.
Subsequently, the mixture was cultured for 3.5 hours at 37° C. to denature the empty HLA-A0206 molecules that were unbound to peptides. As a result, the HLA-A0206 molecules lost their steric structure.
Either the fluorescent labeled monoclonal antibody 17A10 or 17A12, which specifically recognizes a peptide-bound HLA-A0206 molecule, was added thereto. The mixture was incubated on ice for 20 minutes, and the cells were stained.
Subsequently, the amount of fluorescence per cell was measured by using a flow cytometer. The dissociation constant, Kd value, was calculated by using the method published in the research article (Udaka et al., Immunogenetics, 51, 816-828, 2000).
For experiment [3], the system named is human HLA-A type molecule. As to the kind of experiment: Binding experiments, summary statement for HLA-A type molecules. As to conditions: summary of the binding experiments. As to the method: The peptides' binding affinity to an HLA-A24 molecule (the product of HLA-A*2402 gene) was measured by using C1R-A24 cells that express the HLA-A*2402 gene (produced by and provided with permission of Professor Masafumi Takiguchi, Kumamoto University).

No end group written: not given here.

A word on the Kd: it is the equilibrium constant for the complex coming apart. Low values mean tighter binding, high ones weaker binding.

The sequence ALHQVFGAI [compound 38] gave a Kd in experiment [1] of 170 nM. Consider ALVAFLRFL [SEQ ID NO 21], for which binding in experiment [2] was characterised by a dissociation constant (Kd) of 1080 nM. The “binding affinity to a human HLA-A type molecule (in words)” value in experiment [3] is listed as “experimentally confirmed to have binding affinity”. The sequence ELPETLETL [compound 40] gave an equilibrium dissociation constant (Kd) in experiment [1] of 474 nM.

As for FLIDGPETA [compound 35], the Kd in experiment [1] was 883 nM.

Consider FQPESPSKL [compound 36], for which the Kd in experiment [1] is 487 nM.

In the case of HVLGRLITV [compound 45], in experiment [2], the Kd is 557 nM. ILIRTGLLV [compound 33] gave an equilibrium dissociation constant (Kd) in experiment [1] of 298 nM. Same read-out and setting: to IVLEHGSCV [compound 27] belongs 1830 nM. Sequence IVLEHGSCV [compound 46] had a dissociation constant (Kd) in experiment [2] of 952 nM. With LALLAAFKV [compound 43], the Kd in experiment [2] was 341 nM. LLFKTENGV [compound 28] gave a Kd in experiment [1] of 33.5 nM.

In experiment [2], LVISGLFPV [compound 41] gave a dissociation constant (Kd) of 245 nM. NLVRLQSGV [compound 30] had a dissociation constant Kd in experiment [1] of 20100 nM. On to PLNEAIMAV [compound 29], for which binding in experiment [1] was characterised by a dissociation constant (Kd) of 320 nM.

Consider QILEENVEV [compound 50], for which the Kd in experiment [2] is 2480 nM. In turn, SLRPQPTEL [compound 34] showed a Kd in experiment [1] of 8910 nM.

SVIEKMEAL [compound 48] showed an equilibrium dissociation constant (Kd) in experiment [2] of 422 nM. The sequence YMPSVIEKM [compound 39] gave a Kd in experiment [1] of 266 nM. Sequence YVVIAILTV [compound 47] gave a Kd in experiment [2] of 1380 nM.
